Literature values, collected in patent US20100291221A1, “Method of administering dose-sparing amounts of formoterol fumarate-budesonide combination particles by inhalation” (priority 2009, published 2010).

How the values were obtained:
[1] = 9 ug Formoterol Fumarate alone (2 puffs); first treatment day
[2] = tested on: adult asthmatics; settings: inhaled

## COc1ccc(C[C@@H](C)NC[C@H](O)c2ccc(O)c(NC=O)c2)cc1.COc1ccc(C[C@@H](C)NC[C@H](O)c2ccc(O)c(NC=O)c2)cc1.O=C(O)/C=C/C(=O)O [Formoterol Fumarate, formoterol fumarate]
[1]
  Change in FEV1 at 15 minutes: 11%
  Change in FEV1 at 120 minutes: 18%
[2]; adult asthmatics
  Minimum efficacy dose: approximately 4 micrograms
[2]
  Level at which systemic b2 agonist effects begin to occur: above 12 micrograms
